This assay has as its system angiotensin II (aortic blood vessel of rabbits). Briefly: Antagonistic effect on angiotensin II (A II)-induced tension, aortic blood vessel of rabbits. In kind it is cell-based. Conditions: Oryctolagus cuniculus, 0.25 h; for inhibition at 1 µM: 10^-6 M drug substance.
[1] abbreviates: 10^-5 M drug substance, A II 4×10^-9 M, 15 minutes, read-out: Inhibition.
The mark [2] stands for this setting: A II 4×10^-9 M, 15 minutes, read-out: Inhibition.

Where a name gives a salt, the structure may show the parent alone. Read-outs that look alike come from different tables or passages of the source.

Text: Antagonistic effect of the compound (I) of the present invention on angiotensin II (hereinafter referred to briefly as "A II") (with aortic blood vessel of rabbits)
The blood-vessel preparation and reaction were done in accordance with the method as described in "European Journal of Pharmacology", 18, 316 (1972). […] [formula] where; T1 =Change in isometric tension of the blood vessel brought about by A II without a test drug substance (g)

Turning to `Cc1ccccc1Cn1c(-c2ccccc2)nc(Cl)c1CC(=O)O`, the inhibition at 10 µM under setting [1] was 58%.

As to `O=C(O)Cc1c(Cl)nc(-c2ccccc2)n1Cc1c(Cl)cccc1Cl`, the inhibition at 1 µM under setting [2] turned out to be 34%.

Regarding `O=C(O)Cc1c(Cl)nc(-c2ccccc2)n1Cc1c(F)cccc1Cl`, the inhibition at 1 µM under setting [2] was 64%.

Take `O=C(O)Cc1c(Cl)nc(-c2ccccc2)n1Cc1ccccc1Br`: the inhibition at 1 µM under setting [2] came to 60%.

In the case of `CCCCNc1ccc(-c2nc(Cl)c(CC(=O)O)n2Cc2ccccc2)cc1`, the inhibition at 10 µM under setting [1] stood at 63%.

With `O=C(O)Cc1c(Cl)nc(-c2ccccc2[N+](=O)[O-])n1Cc1ccccc1`, under setting [1], the inhibition at 10 µM turned out to be 35%.

Regarding `Nc1ccccc1-c1nc(Cl)c(CC(=O)O)n1Cc1ccccc1`, under setting [1], the inhibition at 10 µM amounted to 30%.

Turning to `O=C(O)Cc1c(Cl)nc(-c2cccc(O)c2)n1Cc1ccccc1`, under setting [1], the inhibition at 10 µM amounted to 18%.

Take `O=C(O)Cc1c(Cl)nc(-c2ccc3c(c2)OCO3)n1Cc1ccccc1`: the inhibition at 10 µM under setting [1] was determined as 51%.

On to `CN(C)c1ccc(-c2nc(Cl)c(CC(=O)O)n2Cc2ccccc2)cc1[N+](=O)[O-]`, for which, under setting [1], the inhibition at 10 µM was determined as 73%.

Turning to `CN(C)c1c([N+](=O)[O-])cc(-c2nc(Cl)c(CC(=O)O)n2Cc2ccccc2)cc1[N+](=O)[O-]`, the inhibition at 10 µM is 86%.

As to `CCN(CC)c1ccc(-c2nc(Cl)c(CC(=O)O)n2Cc2ccccc2)cc1Cl`, the inhibition at 1 µM under setting [2] came to 25%.

Regarding `O=C(O)Cc1c(Cl)nc(-c2ccccc2O)n1Cc1ccccc1`, the inhibition at 10 µM under setting [1] is 55%.

As to `CN(C)c1ccc(-c2nc(Cl)c(CC(=O)O)n2Cc2ccccc2)cc1Cl`, the inhibition at 1 µM under setting [2] was found to be 33%.

As to `CN(C)c1ccc(-c2nc(Cl)c(CC(=O)O)n2Cc2ccccc2)cc1Br`, the inhibition at 1 µM under setting [2] was found to be 18%.

Take `O=C(O)Cc1c(Cl)nc(-c2ccc(O)c(O)c2)n1Cc1ccccc1`: the inhibition at 1 µM under setting [2] was 34%.

Turning to `COc1cccc(-c2nc(Cl)c(CC(=O)O)n2Cc2ccccc2Cl)c1`, the inhibition at 1 µM under setting [2] came to 23%.

On to `COc1cc(-c2nc(Cl)c(CC(=O)O)n2Cc2ccccc2)ccc1O`, for which the inhibition at 1 µM under setting [2] is 16%.

As for `COc1ccccc1Cn1c(-c2ccccc2)nc(Cl)c1CC(=O)O`, the inhibition at 1 µM under setting [2] is 42%.

In the case of `COc1ccc(Cn2c(-c3ccccc3)nc(Cl)c2CC(=O)O)cc1`, the inhibition at 10 µM under setting [1] came out at 61%.

Turning to `CCOc1ccc(Cn2c(-c3ccccc3)nc(Cl)c2CC(=O)O)cc1`, the inhibition at 1 µM under setting [2] amounted to 43%.

As to `CCOc1ccccc1Cn1c(-c2ccccc2)nc(Cl)c1CC(=O)O`, the inhibition at 1 µM under setting [2] was 41%.

Regarding `COc1ccc(Cn2c(-c3ccccc3)nc(Cl)c2CC(=O)O)cc1OC`, the inhibition at 1 µM under setting [2] came out at 38%.

With `CCOc1ccc(Cn2c(-c3ccccc3)nc(Cl)c2CC(=O)O)cc1C`, the inhibition at 1 µM under setting [2] was 81%.

Take `COc1ccc(-c2nc(Cl)c(CC(=O)O)n2Cc2ccccc2)cc1OC`: the inhibition at 1 µM under setting [2] is 18%.

In the case of `COc1ccc(-c2nc(Cl)c(CC(=O)O)n2Cc2ccccc2)cc1C`, the inhibition at 1 µM under setting [2] stood at 32%.

Regarding `COc1ccc(Cn2c(-c3ccc(OC)c(C)c3)nc(Cl)c2CC(=O)O)cc1C`, the inhibition at 1 µM under setting [2] is 54%.

Take `COc1cc(-c2nc(Cl)c(CC(=O)O)n2Cc2ccccc2)ccc1OCc1ccccc1`: the inhibition at 1 µM under setting [2] was 18%.

On to `O=C(O)Cc1c(Cl)nc(C2CCCC2)n1Cc1ccccc1`, for which the inhibition at 1 µM under setting [2] was found to be 34%.

For `O=C(O)Cc1c(Cl)nc(C2CCCCC2)n1Cc1ccccc1`, the inhibition at 1 µM under setting [2] turned out to be 18%.

`O=C(O)Cc1c(Cl)nc(-c2ccccc2)n1Cc1ccc(Cl)cc1Cl` [1-(2,4-dichlorobenzyl)-4-chloro-2-phenylimidazole-5-acetic acid hydrochloride]: under setting [1], the inhibition at 10 µM was found to be 30%.

As to `O=C(O)Cc1c(Cl)nc(-c2ccccc2)n1Cc1cc([N+](=O)[O-])ccc1Cl` [1-(2-chloro-5-nitrobenzyl)-4-chloro-2-phenylimidazole-5-acetic acid], the inhibition at 1 µM under setting [2] stood at 34%.

`O=C(O)Cc1c(Cl)nc(-c2ccccc2)n1Cc1ccc(OCc2ccccc2)cc1` [1-(4-benzyloxybenzyl)-4-chloro-2-phenylimidazole-5-acetic acid]: under setting [1], the inhibition at 10 µM amounted to 19%.
